From patent US7528126B2, “Pyrrolobenzodiazepines” (Spirogen Limited, priority 2004, dated 2009)
In brackets after ≈: the same amount, converted by molar mass.

Legend:
Streptococcus agalactiae = assay: Antimicrobial susceptibility test (disc diffusion), Streptococcus agalactiae; format: cell-based; conditions: dash = none; for Resistant %: share of Streptococcus agalactiae strains classed resistant; for Sensitive %: share of Streptococcus agalactiae strains classed sensitive
Protocol: (§1) Several bacterial colonies were transferred from the agar plates to bijoux containing MHB. The suspension is incubated at 35° C. and subsequently diluted down in sterile saline to match the density of a McFarland standard solution. A sterile cotton swab is then dipped in the bacterial inoculum and pressed against the bijou walls to remove any excess solution. MHA plates are then thoroughly streaked with the swab three times, turning the plate 60° each time. The discs are placed onto the inoculated plate within 15 minutes. The positions of the discs should allow enough space (≈24 mm) around each individual disc in order to measure the diffusion diameter at a later stage. The plates were incubated immediately at 35° C. for 16-18 hours for all organisms excluding VRE, and MRSA, which require a 24-hour incubation. The experiment was valid if there was a confluent bacterial growth, not single colonies, and circular inhibition zones were evident. Clear zones produced around the disc were measured with a ruler and interpreted according to the tables provided by the NCCLS. Bacteria were classified as sensitive, intermediate or resistant.

Listeria monocytogenes = assay: Antimicrobial susceptibility test (disc diffusion), Listeria monocytogenes; format: cell-based; conditions: dash = none; for Sensitive %: share of Listeria monocytogenes strains classed sensitive; for Resistant %: share of Listeria monocytogenes strains classed resistant
Protocol: as §1

MRSA [1] = assay: Antimicrobial susceptibility test (disc diffusion), MRSA; format: cell-based, methicillin resistant Staphylococcus aureus; conditions: for Resistant %: share of MRSA strains classed resistant; for Sensitive %: share of MRSA strains classed sensitive
Protocol: as §1

VRE = assay: Antimicrobial susceptibility test (disc diffusion), VRE; format: cell-based, vancomycin resistant enterococci; conditions: dash = none; for Resistant %: share of VRE strains classed resistant; for Sensitive %: share of VRE strains classed sensitive
Protocol: as §1

Streptococcus pyogenes = assay: Antimicrobial susceptibility test (disc diffusion), Streptococcus pyogenes; format: cell-based; conditions: dash = none; for Sensitive %: share of Streptococcus pyogenes strains classed sensitive
Protocol: as §1

MRSA [2] = conditions: literature values for comparison; cited from earlier work
[3] = test system: K562 human chronic myeloid leukaemia cells; conditions: value quoted for comparison; read-out: IC50 quoted in WO 93/18045; cited from earlier work

| Compound | Sensitive % (Listeria monocytogenes) [%] | Resistant % (VRE) [%] | Sensitive % (VRE) [%] | Sensitive % (Streptococcus pyogenes) [%] | Sensitive % (Streptococcus agalactiae) [%] | other results |
| --- | --- | --- | --- | --- | --- | --- |
| Gentamicin | 100 | 80 | 20 | 100 |  | Resistant % (Streptococcus agalactiae): 100%; Intermediate % (MRSA [1]; share of MRSA strains classed intermediate, dash = none): 8%; Resistant % (MRSA [1]; dash = none): 70%; Sensitive % (MRSA [1]; dash = none): 22% |
| synercid |  |  |  |  |  | MIC in MRSA (MRSA [2]): ~0.5 mg/L |
| CN[C@H](CC(C)C)C(=O)N[C@H]1C(=O)N[C@@H](CC(N)=O)C(=O)N[C@H]2C(=O)N[C@H]3C(=O)N[C@H](C(=O)N[C@H](C(=O)O)c4cc(O)cc(O)c4-c4cc3ccc4O)[C@H](O)c3ccc(c(Cl)c3)Oc3cc2cc(c3O[C@@H]2O[C@H](CO)[C@@H](O)[C@H](O)[C@H]2O[C@H]2C[C@](C)(N)[C@H](O)[C@H](C)O2)Oc2ccc(cc2Cl)[C@H]1O [Vancomycin] | 100 | 100 |  | 100 | 100 | susceptibility of all MRSA strains used (MRSA [1]; in words, summary of Table 4): completely susceptible; MIC in MRSA (MRSA [2]): about 2 mg/L |
| CN(C)[C@@H]1C(O)=C(C(N)=O)C(=O)[C@@]2(O)C(O)=C3C(=O)c4c(O)cccc4[C@@](C)(O)[C@H]3C[C@@H]12 [Tetracycline] | 100 | 60 | 40 | 100 | 10 | Resistant % (Streptococcus agalactiae): 90% |
| COc1cc(Cc2cnc(N)nc2N)cc(OC)c1OC [Trimethophrim] | 100 | 75 | 25 | 100 | 100 | Resistant % (MRSA [1]; dash = none): 32%; Sensitive % (MRSA [1]; dash = none): 68% |
| CC=C1C[C@H]2C=Nc3cc(OCCCOc4cc5c(cc4OC)C(=O)N4CC(=CC)C[C@H]4C=N5)c(OC)cc3C(=O)N2C1 [Example 6 in WO 93/18045] |  |  |  |  |  | IC50 [3]: 10 nM |
| Cc1onc(-c2ccccc2)c1C(=O)N[C@@H]1C(=O)N2[C@@H]1SC(C)(C)[C@@H]2C(=O)O [Oxacillin] |  | 100 |  | 100 | 100 | Resistant % (Listeria monocytogenes): 100% |
| CCC[C@@H]1C[C@@H](C(=O)N[C@@H]([C@H]2O[C@H](SC)[C@H](O)[C@@H](O)[C@H]2O)[C@H](C)Cl)N(C)C1 [Clindamycin] |  | 85 | 15 | 100 | 100 | Resistant % (Listeria monocytogenes): 100% |
| CO[C@H]1/C=C/O[C@@]2(C)Oc3c(C)c(O)c4c(O)c(c(/C=N/N5CCN(C)CC5)c(O)c4c3C2=O)NC(=O)/C(C)=C\C=C\[C@H](C)[C@H](O)[C@@H](C)[C@@H](O)[C@@H](C)[C@H](OC(C)=O)[C@@H]1C [Rifampicin] | 100 |  |  | 100 | 100 |  |
| CC(=O)NC[C@H]1CN(c2ccc(N3CCOCC3)c(F)c2)C(=O)O1 [linezolid] |  |  |  |  |  | MIC in MRSA (MRSA [2]): ~1 mg/L (≈ 2.96 µM) |
| CC[C@H]1OC(=O)[C@H](C)[C@@H](O[C@H]2C[C@@](C)(OC)[C@@H](O)[C@H](C)O2)[C@H](C)[C@@H](O[C@@H]2O[C@H](C)C[C@H](N(C)C)[C@H]2O)[C@](C)(O)C[C@@H](C)C(=O)[C@H](C)[C@@H](O)[C@]1(C)O [Erythromycin] | 100 | 90 | 10 | 100 | 100 |  |
| NCC[C@H](O)C(=O)N[C@@H]1C[C@H](N)[C@@H](O[C@H]2O[C@H](CN)[C@@H](O)[C@H](O)[C@H]2O)[C@H](O)[C@H]1O[C@H]1O[C@H](CO)[C@@H](O)[C@H](N)[C@H]1O [Amikacin] | 100 |  |  |  |  | Resistant % (Streptococcus agalactiae): 100%; Resistant % (Streptococcus pyogenes; share of Streptococcus pyogenes strains classed resistant): 100% |
